Laboratory results reported in US12448389B2, “BRM targeting compounds and associated methods of use” (Prelude Therapeutics Incorporated, priority 2020, dated 2025).

Legend:
SMARCA2-HiBiT = target: T1, SMARCA2-HiBiT (Homo sapiens, UniProt P51531); assay: SMARCA2 HiBiT degradation assay in HeLa cells; type: cell-based; conditions: 18 hours incubation; for DC50: read-out: HeLa_HiBit-SM2 DC50; for Dmax: HeLa, read-out: HeLa-HiBit-SM2 Dmax (%)
T1 construct: SMARCA2-HiBiT knock-in Hela monoclonal cell (CS302366); host or cells: HeLa monoclonal knock-in line (CRISPR HiBiT knock-in at the endogenous locus, heterozygous)
In short: (§1)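 HeLa monoclonal lines with heterozygous HiBiT knock-in were seeded at 2500 cells/well in EMEM with 10% FBS and treated with compound for 18 h at 37 °C. Remaining tagged protein was measured by Nano-Glo HiBiT lytic luminescence after 30–60 min at RT, and values came from curve fitting.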

SMARCA4-HiBiT = target: T2, SMARCA4-HiBiT (Homo sapiens, UniProt P51532); assay: SMARCA4 HiBiT degradation assay in HeLa cells; type: cell-based; conditions: 18 hours incubation; for DC50: read-out: HeLa-HiBit-SM4 DC50; for Dmax: HeLa, read-out: HeLa-HiBit-SM4 Dmax (%)
T2 construct: SMARCA4-HiBiT knock-in Hela monoclonal cell (CS3023226); host or cells: HeLa monoclonal knock-in line (CRISPR HiBiT knock-in at the endogenous locus, heterozygous)
In short: as §1

T2 sequence (P51532 whole entry): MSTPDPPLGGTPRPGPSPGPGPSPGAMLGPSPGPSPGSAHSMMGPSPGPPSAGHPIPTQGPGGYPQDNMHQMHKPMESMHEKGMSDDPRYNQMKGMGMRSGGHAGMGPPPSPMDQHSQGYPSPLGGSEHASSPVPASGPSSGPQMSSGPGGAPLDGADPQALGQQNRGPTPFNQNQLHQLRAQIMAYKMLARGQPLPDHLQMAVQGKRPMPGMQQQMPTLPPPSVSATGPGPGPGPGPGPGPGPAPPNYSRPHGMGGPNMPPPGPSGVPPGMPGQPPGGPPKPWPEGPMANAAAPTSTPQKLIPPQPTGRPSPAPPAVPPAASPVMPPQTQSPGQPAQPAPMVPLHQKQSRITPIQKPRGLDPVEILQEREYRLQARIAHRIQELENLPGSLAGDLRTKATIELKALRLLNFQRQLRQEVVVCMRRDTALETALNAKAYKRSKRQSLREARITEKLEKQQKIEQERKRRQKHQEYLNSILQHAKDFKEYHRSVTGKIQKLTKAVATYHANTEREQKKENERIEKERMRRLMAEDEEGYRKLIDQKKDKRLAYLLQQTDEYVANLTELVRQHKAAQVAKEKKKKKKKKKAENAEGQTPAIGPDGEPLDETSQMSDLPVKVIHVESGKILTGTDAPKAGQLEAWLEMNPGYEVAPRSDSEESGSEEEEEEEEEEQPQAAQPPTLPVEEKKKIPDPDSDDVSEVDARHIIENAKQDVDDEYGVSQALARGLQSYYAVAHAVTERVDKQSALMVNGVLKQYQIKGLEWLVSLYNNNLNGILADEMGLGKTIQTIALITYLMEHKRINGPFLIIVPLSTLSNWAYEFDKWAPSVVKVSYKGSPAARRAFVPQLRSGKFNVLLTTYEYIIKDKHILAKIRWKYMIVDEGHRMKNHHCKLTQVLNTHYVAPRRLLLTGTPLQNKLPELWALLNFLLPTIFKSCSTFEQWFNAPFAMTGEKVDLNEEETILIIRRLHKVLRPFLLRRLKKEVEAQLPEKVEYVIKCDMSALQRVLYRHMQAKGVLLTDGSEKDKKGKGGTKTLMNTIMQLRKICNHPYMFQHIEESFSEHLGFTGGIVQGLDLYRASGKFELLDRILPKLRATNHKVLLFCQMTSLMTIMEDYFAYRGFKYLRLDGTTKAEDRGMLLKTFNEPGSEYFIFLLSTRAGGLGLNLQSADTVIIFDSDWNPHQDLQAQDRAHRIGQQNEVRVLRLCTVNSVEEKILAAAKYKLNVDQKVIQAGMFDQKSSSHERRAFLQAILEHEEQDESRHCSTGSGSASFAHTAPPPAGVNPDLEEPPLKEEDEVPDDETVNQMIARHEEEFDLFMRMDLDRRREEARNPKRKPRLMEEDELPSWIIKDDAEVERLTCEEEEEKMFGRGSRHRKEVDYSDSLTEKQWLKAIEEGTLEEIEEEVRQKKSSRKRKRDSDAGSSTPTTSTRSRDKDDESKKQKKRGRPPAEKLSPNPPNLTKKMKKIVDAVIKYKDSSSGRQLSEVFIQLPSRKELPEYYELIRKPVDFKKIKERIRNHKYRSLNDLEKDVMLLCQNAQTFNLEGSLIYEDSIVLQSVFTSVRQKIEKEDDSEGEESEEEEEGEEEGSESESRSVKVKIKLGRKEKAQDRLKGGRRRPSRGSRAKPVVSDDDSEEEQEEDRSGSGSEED
T1 sequence (P51531 whole entry): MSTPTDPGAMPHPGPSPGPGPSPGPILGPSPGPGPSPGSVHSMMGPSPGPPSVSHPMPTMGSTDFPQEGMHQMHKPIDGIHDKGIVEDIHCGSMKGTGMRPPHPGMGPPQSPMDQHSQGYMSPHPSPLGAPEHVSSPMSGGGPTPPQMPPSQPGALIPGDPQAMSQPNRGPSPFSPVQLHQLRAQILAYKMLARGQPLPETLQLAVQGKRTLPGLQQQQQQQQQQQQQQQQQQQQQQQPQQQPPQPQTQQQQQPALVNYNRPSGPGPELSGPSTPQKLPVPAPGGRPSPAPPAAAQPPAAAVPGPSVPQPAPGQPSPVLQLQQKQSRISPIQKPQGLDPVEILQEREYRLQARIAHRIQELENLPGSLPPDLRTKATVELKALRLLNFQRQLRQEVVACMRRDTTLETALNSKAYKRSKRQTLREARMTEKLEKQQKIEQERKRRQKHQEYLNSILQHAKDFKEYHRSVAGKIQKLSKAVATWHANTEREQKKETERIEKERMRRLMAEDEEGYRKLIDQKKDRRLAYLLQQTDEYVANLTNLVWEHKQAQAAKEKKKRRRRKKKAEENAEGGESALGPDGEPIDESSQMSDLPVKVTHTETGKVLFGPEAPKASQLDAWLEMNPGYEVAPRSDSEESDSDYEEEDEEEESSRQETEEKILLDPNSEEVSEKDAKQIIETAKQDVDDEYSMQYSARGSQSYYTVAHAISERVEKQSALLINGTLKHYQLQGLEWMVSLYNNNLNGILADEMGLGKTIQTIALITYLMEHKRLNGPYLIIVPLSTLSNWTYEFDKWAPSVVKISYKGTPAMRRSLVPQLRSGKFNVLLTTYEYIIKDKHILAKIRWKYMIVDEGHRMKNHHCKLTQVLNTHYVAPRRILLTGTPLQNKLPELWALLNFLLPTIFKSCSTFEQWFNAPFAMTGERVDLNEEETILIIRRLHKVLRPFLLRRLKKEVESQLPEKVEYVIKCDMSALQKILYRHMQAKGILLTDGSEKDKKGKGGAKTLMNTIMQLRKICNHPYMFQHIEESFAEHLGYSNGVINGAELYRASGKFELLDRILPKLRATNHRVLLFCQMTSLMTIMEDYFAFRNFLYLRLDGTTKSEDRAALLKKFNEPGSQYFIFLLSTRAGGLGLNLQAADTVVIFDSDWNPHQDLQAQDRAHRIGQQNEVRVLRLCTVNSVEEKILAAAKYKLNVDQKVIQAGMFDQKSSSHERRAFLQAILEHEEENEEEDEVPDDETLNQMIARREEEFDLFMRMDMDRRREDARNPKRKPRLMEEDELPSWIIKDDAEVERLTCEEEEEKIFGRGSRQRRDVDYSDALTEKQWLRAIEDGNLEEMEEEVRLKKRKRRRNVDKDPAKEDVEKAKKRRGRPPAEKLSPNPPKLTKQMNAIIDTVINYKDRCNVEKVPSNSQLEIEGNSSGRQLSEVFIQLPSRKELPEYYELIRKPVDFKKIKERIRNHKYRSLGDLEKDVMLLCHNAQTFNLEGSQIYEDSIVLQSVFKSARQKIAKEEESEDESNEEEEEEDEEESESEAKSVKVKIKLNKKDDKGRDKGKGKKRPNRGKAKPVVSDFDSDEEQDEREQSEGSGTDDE

Row | DC50 (SMARCA2-HiBiT) | Dmax (SMARCA2-HiBiT) | DC50 (SMARCA4-HiBiT) | Dmax (SMARCA4-HiBiT) | SMILES
1 | < 0.01 µM | 75 to 85% | < 0.01 µM | 50 to 75% | COC1(CN2C[C@@H]3[C@@H](CN4CCN5c6cc(-c7ccccc7O)nnc6NC[C@H]5C4)[C@@H]3C2)CCN(c2ccc3c(c2)C(=O)N(C2CCC(=O)NC2=O)C3=O)CC1 (stereo partly drawn) [Example 89, 2-(2,6-dioxopiperidin-3-yl)-5-(4-(((1R,5S,6s)-6-(((S)-2-(2-hydroxyphenyl)-5,6,6a,7,9,10-hexahydro-8H-pyrazino[1′,2′:4,5]pyrazino[2,3-c]pyridazin-8-yl)methyl)-3-azabicyclo[3.1.0]hexan-3-yl)methyl)-4-methoxypiperidin-1-yl)isoindoline-1,3-dione]
2 | < 0.01 µM | > 85% | 0.01 to 0.1 µM | 75 to 85% | O=C1CCC(N2Cc3ccc(N4CC[C@H](CN5CCN(C(=O)N6CCN7c8cc(-c9ccccc9O)nnc8NC[C@H]7C6)CC5)[C@@H](F)C4)cc3C2=O)C(=O)N1 (stereo partly drawn) [Example 205, 3-[5-[(3R.4R)-3-fluoro-4-[[4-[(10S)-4-(2-hydroxyphenyl)-1,5,6,8,12-pentazatricyclo[8.4.0.02,7]tetradeca-2,4,6-triene-12-carbonyl]piperazin-1-yl]methyl]piperidin-1-yl]-3-oxo-1H-isoindol-2-yl]piperidine-2.6-dione]
3 | < 0.01 µM | 75 to 85% | < 0.01 µM | 50 to 75% | O=C1CCC(N2C(=O)c3cccc(N4CCC(CCCN5CCC(N6CCN7c8cc(-c9ccccc9O)nnc8NC[C@H]7C6)C(F)C5)CC4)c3C2=O)C(=O)N1 (stereo partly drawn) [Example 73, 2-(2,6-dioxopiperidin-3-yl)-4-(4-(3-(3-fluoro-4-((S)-2-(2-hydroxyphenyl)-5,6,6a,7,9,10-hexahydro-8H-pyrazino[1′,2′:4,5]pyrazino[2,3-c]pyridazin-8-yl)piperidin-1-yl)propyl)piperidin-1-yl)isoindoline-1,3-]
4 | < 0.01 µM | 50 to 75% | 0.01 to 0.1 µM | 75 to 85% | O=C1CCC(N2C(=O)c3ccc(Oc4ccc(N5CCC(N6CCN7c8cc(-c9ccccc9O)nnc8NC[C@H]7C6)CC5)cc4)cc3C2=O)C(=O)N1 (stereo partly drawn) [Example 241, 2-(2,6-dioxopiperidin-3-yl)-5-(4-(4-((S)-2-(2-hydroxyphenyl)-5,6,6a,7,9,10-hexahydro-8H-pyrazino[1′,2′:4,5]pyrazino[2,3-c]pyridazin-8-yl)piperidin-1-yl)phenoxy)isoindoline-1,3-dione]
5 | < 0.01 µM | > 85% | < 0.01 µM | 75 to 85% | O=C1CCC(N2C(=O)c3ccc(N4CCC(CN5CC6COCC(C5)C6CN5CCN6c7cc(-c8ccccc8O)nnc7NC[C@H]6C5)CC4)cc3C2=O)C(=O)N1 (stereo partly drawn) [Example 132, 2-(2,6-dioxopiperidin-3-yl)-5-(4-((9-(((S)-2-(2-hydroxyphenyl)-5,6,6a,7,9,10-hexahydro-8H-pyrazino[1′,2′:4,5]pyrazino[2,3-c]pyridazin-8-yl)methyl)-3-oxa-7-azabicyclo[3.3.1]nonan-7-yl)methyl)piperidin-1-yl)isoindoline-1,3-dione]
6 | < 0.01 µM | > 85% | < 0.01 µM | > 85% | O=C1CCC(N2C(=O)c3cccc(N4CCC(N5CCC(N6CCN7c8cc(-c9ccccc9O)nnc8NC[C@H]7C6)CC5)CC4)c3C2=O)C(=O)N1 (stereo partly drawn) [Example 66, 2-(2,6-dioxopiperidin-3-yl)-4-(4-((S)-2-(2-hydroxyphenyl)-5,6,6a,7,9,10-hexahydro-8H-pyrazino[1′,2′:4,5]pyrazino[2,3-c]pyridazin-8-yl)-[1,4′-bipiperidin]-1′-yl) isoindoline-1,3-dione]
